Measurements: EP0410762A1, “Naphthyridine derivatives” (DowElanco, priority 1989, dated 1991)

How the values were obtained:
Type in all cases: in vivo
[1] = system: Twospotted spider mites (Tetranychus urticae Koch); assay: Mite/insect screen: twospotted spider mites on sprayed squash cotyledons; conditions: percent mortality, leaf spray, read-out: SM RESULTS; for mortality at 400 ppm: rate 400 PPM; for mortality at 200 ppm: rate 200 PPM
[2] = system: Southern corn rootworm (Diabrotica undecimpuctata howardi Barber); assay: Mite/insect screen: corn rootworm, treated soil; conditions: percent mortality, soil treatment; for mortality at 24 ppm: CRW rate 24.00 PPM; for mortality at 12 ppm: CRW rate 12.00 PPM
[3] = system: Puccinia recondita tritici; assay: Greenhouse Test 1, foliar spray fungicide screen: leaf rust; conditions: disease control rating, host wheat, 400 ppm (+++ at 100 ppm)
[4] = system: Erysiphe graminis tritici; assay: Greenhouse Test 1, foliar spray fungicide screen: powdery mildew; conditions: disease control rating, host wheat, 400 ppm (+++ at 100 ppm)
[5] = system: southern armyworm (Spodopetra eridania Cramer); assay: Mite/insect screen: southern armyworm on sprayed squash leaves; conditions: Spodoptera eridania, percent mortality, leaf spray, read-out: SAW RESULTS; for mortality at 400 ppm: rate 400 PPM; for mortality at 200 ppm: rate 200 PPM
[6] = system: Pseudoperonospora cubensis; assay: Greenhouse Test 1, foliar spray fungicide screen: downy mildew; conditions: disease control rating, host squash, 400 ppm (+++ at 100 ppm)
[7] = system: Botrytis cinerea; assay: Greenhouse Test 1, foliar spray fungicide screen: gray mold; conditions: disease control rating, host grape berries, 400 ppm (+++ at 100 ppm)
[8] = system: melon aphids (Aphis gossypii Glover); assay: Mite/insect screen: melon aphids on sprayed squash cotyledons; conditions: percent mortality, leaf spray, read-out: MA RESULTS; for mortality at 400 ppm: rate 400 PPM; for mortality at 200 ppm: rate 200 PPM
[9] = system: Pyricularia oryzae; conditions: disease control rating; foliar spray; host rice; 400 ppm (+++ at 100 ppm)
[10] = system: Cercospora beticola; assay: Greenhouse Test 1, foliar spray fungicide screen: leaf spot; conditions: disease control rating, host sugar beet, 400 ppm (+++ at 100 ppm)
[11] = system: Venturia inaequalis; assay: Greenhouse Test 1, foliar spray fungicide screen: apple scab; conditions: disease control rating, host apple seedling, 400 ppm (+++ at 100 ppm)
[12] = system: Septoria tritici; assay: Greenhouse Test 1, foliar spray fungicide screen: leaf blotch; conditions: disease control rating, host wheat, 400 ppm (+++ at 100 ppm)

| SMILES | mortality at 400 ppm [1] [%] | mortality at 24 ppm [2] [%] | LEAF RUST [3] | POWD MDEW [4] | mortality at 400 ppm [5] [%] | DOWN MDEW [6] | GRAY MOLD [7] | mortality at 400 ppm [8] [%] | RICE BLAST [9] | mortality at 200 ppm [1] [%] | mortality at 12 ppm [2] [%] | mortality at 200 ppm [5] [%] | mortality at 200 ppm [8] [%] | LEAF SPOT [10] | APPL SCAB [11] | LEAF BLOT [12] |
| --- | --- | --- | --- | --- | --- | --- | --- | --- | --- | --- | --- | --- | --- | --- | --- | --- |
| Fc1ccc(Oc2ccnc3cccnc23)cc1 [Example 4, 4-(4-fluorophenoxy)-1,5-naphthyridine] | 80 | 0 | + (+ = 20-89% control at 400 ppm) | + (+ = 20-89% control at 400 ppm) | 0 | ++ (++ = 90-100% control at 400 ppm) | - (- = 0-19% control at 400 ppm) | 80 | + (+ = 20-89% control at 400 ppm) | – | – | – | – | – | – | – |
| Fc1ccc(Oc2ccnc3cnccc23)cc1 [Example 2, 4-(4-fluorophenoxy)-1,7-naphthyridine] | 0 | 0 | + (+ = 20-89% control at 400 ppm) | + (+ = 20-89% control at 400 ppm) | 0 | + (+ = 20-89% control at 400 ppm) | - (- = 0-19% control at 400 ppm) | 0 | - (- = 0-19% control at 400 ppm) | 40 | 0 | 0 | 30 | – | – | – |
| Fc1ccc(Oc2ccnc3ncccc23)cc1 [Example 1, 4-(4-fluorophenoxy)-1,8-naphthyridine] | 0 | 0 | ++ (++ = 90-100% control at 400 ppm) | + (+ = 20-89% control at 400 ppm) | 0 | ++ (++ = 90-100% control at 400 ppm) | - (- = 0-19% control at 400 ppm) | 0 | - (- = 0-19% control at 400 ppm) | 0 | 0 | 0 | 0 | – | – | – |
| Fc1ccc(Oc2ccnc3ccncc23)cc1 [Example 3, 4-(4-fluorophenoxy)-1,6-naphthyridine] | 0 | 0 | - (- = 0-19% control at 400 ppm) | - (- = 0-19% control at 400 ppm) | 0 | - (- = 0-19% control at 400 ppm) | - (- = 0-19% control at 400 ppm) | 0 | - (- = 0-19% control at 400 ppm) | 0 | 0 | 0 | 0 | – | – | – |
| CCOc1ccc(CCOc2ccnc3cccnc23)cc1 [Example 9, 4-[2-(4-ethoxyphenyl)ethoxy]-1,5-naphthyridine] | 80 | 0 | +++ (+++ = 90-100% control at 100 ppm) | + (+ = 20-89% control at 400 ppm) | 0 | ++ (++ = 90-100% control at 400 ppm) | - (- = 0-19% control at 400 ppm) | 100 | ++ (++ = 90-100% control at 400 ppm) | 40 | 0 | 0 | 100 | – | – | – |
| c1ccc(CCNc2ccnc3cccnc23)cc1 [Example 10, N-(2-phenylethyl)-1,5-naphthyridin-4-amine] | – | – | + (+ = 20-89% control at 400 ppm) | + (+ = 20-89% control at 400 ppm) | – | +++ (+++ = 90-100% control at 100 ppm) | - (- = 0-19% control at 400 ppm) | – | + (+ = 20-89% control at 400 ppm) | 0 | 0 | 0 | 0 | + (+ = 20-89% control at 400 ppm) | + (+ = 20-89% control at 400 ppm) | - (- = 0-19% control at 400 ppm) |
| CCOc1ccc(CCCOc2ccnc3cccnc23)cc1 [Example 6, 4-[3-(4-ethoxyphenyl)propoxy]-1,5-naphthyridine] | 0 | 0 | - (- = 0-19% control at 400 ppm) | - (- = 0-19% control at 400 ppm) | 0 | - (- = 0-19% control at 400 ppm) | - (- = 0-19% control at 400 ppm) | 0 | - (- = 0-19% control at 400 ppm) | 0 | 0 | 0 | 0 | – | – | – |
| CC(C)(C)c1ccc(CCNc2ccnc3cccnc23)cc1 [Example 7, N-[2-[4-(t-butyl)phenyl]ethyl]-1,5-naphthyridin-4-amine] | 100 | 0 | +++ (+++ = 90-100% control at 100 ppm) | ++ (++ = 90-100% control at 400 ppm) | 0 | +++ (+++ = 90-100% control at 100 ppm) | - (- = 0-19% control at 400 ppm) | 100 | ++ (++ = 90-100% control at 400 ppm) | 90 | 0 | 0 | 90 | – | – | – |
| CC(C)(C)c1ccc(CCOc2ccnc3cccnc23)cc1 [Example 5, 4-[2-[4-(t-butyl)phenyl]ethoxy]-1,5-naphthyridine] | 100 | 0 | ++ (++ = 90-100% control at 400 ppm) | + (+ = 20-89% control at 400 ppm) | 0 | +++ (+++ = 90-100% control at 100 ppm) | - (- = 0-19% control at 400 ppm) | 80 | ++ (++ = 90-100% control at 400 ppm) | 100 | 0 | 0 | 50 | – | – | – |
| Clc1ccccc1Oc1ccnc2ncccc12 [Example 8, 4-(2-chlorophenoxy)-1,8-naphthyridine] | 0 | 0 | + (+ = 20-89% control at 400 ppm) | - (- = 0-19% control at 400 ppm) | 0 | ++ (++ = 90-100% control at 400 ppm) | - (- = 0-19% control at 400 ppm) | 0 | + (+ = 20-89% control at 400 ppm) | 0 | 0 | 0 | 0 | – | – | – |
